What was measured:
[1] = Stability in chronic wound extracts (CWE), capillary zone electrophoresis; assay type: in vitro ADME, human; settings: 37°C, 96 h, CZE; for Starting material remaining intact after 96 h in CWE: 1 mg/ml in PBS mixed 1:1 with CWE (1 mg/ml protein, pools of 5 donors), 0 h = 100%, mean of 3 independent experiments; for Degradation in CWE in 96 h: incubation with chronic wound extracts
Text: Debridement tissue was obtained from chronic ulcers of 15 patients with therapy resistant (arterio-venous) leg ulcers, according to procedures described earlier. In brief, moist, easily removable debridement material, essentially blood free, was collected from the ulcer surface and divided equally into two different solutions: (i) PBS (B. Braun, Melsungen, Germany), (ii) PBS with protease inhibitor cocktail (PIC) (1:100; v/v) (Sigma-Aldrich, Steinheim, Germany). The mixtures were gently shaken for 1 h at 4°C to elute proteins and centrifuged; the supernatants were stored at -80°C. Total protein content of the supernatant was measured using the BioRad Protein Assay (BioRad Laboratories, Hercules, California, USA) essentially as described by the supplier. Samples were diluted to 1 mg/ml protein and extracts of five different donors were pooled; three different pools of five donors were used in all experiments. The samples are referred to as chronic wound extracts (CWE).
To determine the stability of the different peptides in CWE, histatins and cytokines were dissolved in PBS at 1 mg/ml. Histatins and cytokines were incubated in a 1:1 ratio with (i) PBS, (ii) CWE in PBS, or (iii) CWE in PBS containing PIC, in a total volume of 25 μl. Imidazole (Sigma-Aldrich) was added as an internal standard, with a final concentration of 100 μg/ml. The mixtures were incubated at 37°C, and samples were taken at 0, 24, 48, 72 and 96 h. For histatins containing mixtures, additional samples were taken after 2, 4, 8 and 16 h of incubation.
The samples were analyzed with a BioFocus 2000 capillary zone electrophoresis system (Bio-Rad Laboratories, Hercules, CA, USA) equipped with an uncoated fused-silica capillary of internal diameter 50 μm and a length of 24 cm. Samples were loaded by pressure injection (5 psi/sec). Separation was performed at 10 kV (cathode at the detector side) at 20°C using 0.1 M phosphate buffer (pH 2.5) as electrolyte and monitored continuously at 200 nm. Peaks were quantified with the BioFocus Integrator software. In order to quantify the percentage of intact peptides remaining after incubation with CWE, the ratios of histatins, rhIL-6 or rhCXCL8 to internal standard was set at 100% at 0h, and the ratios at the other incubation time points were related to this.

[2] = tested on: dermal fibroblasts; assay: Fibroblast wound healing scratch assay (migration); assay type: cell-based, human; settings: serum-free medium, histatins 5 μM, rhIL-6 125 ng/ml, rhCXCL8 250 ng/ml, (E0-E96)/(U0-U96), unexposed = 1; for Migration of dermal fibroblasts in scratch assay, 8 h exposure: 8 h exposure then 88 h without, read at 96 h; for Migration of dermal fibroblasts in scratch assay, 96 h exposure: continuous 96 h exposure
Method: Dermal fibroblasts were isolated from healthy human abdominal skin from patients undergoing corrective abdominal plastic surgery. After removal of all adipose tissue, the skin was washed in PBS and incubated overnight on dispase II (Roche, Mannheim, Germany) at 4°C. The next day, epidermis was removed and discarded and the dermis was incubated in collagenase type II (Gibco, Life Technologies, Grand Island, USA)/dispase II in Hanks balanced salt solution (HBSS) (Gibco) at 37°C for 2–3 h. Fibroblast medium consisting of DMEM (Lonza, Verviers, Belgium) containing 1% ultroserG (UG) (Biosepra, Cergy-Saint-Christopher, France) and 1% penicillin-streptomycin (P/S) (Gibco) was added and the solution was passed through an 100 μm and 40 μm cell strainer (Becton Dickinson Falcon, Erembodegem, Belgium). A single cell suspension was seeded at ± 3.5 x 10^4 cells cm^2 and further cultured in fibroblast medium. Medium was changed twice a week and cultures were passaged when 90% confluent using 0.5mM EDTA/0.05% trypsin (Gibco). The cells were maintained at 37°C in a humidified atmosphere containing 5% CO2 and used for experiments at passage 3.
A wound healing scratch assay was performed to determine the effect of histatins, rhIL-6 and rhCXCL8 on fibroblast migration. Confluent monolayers of fibroblasts in a 48-well plate (Costar, Corning Incorporated, New York, USA) were incubated with serum-free medium (DMEM containing 1% P/S and 0.1% bovine serum albumin (Sigma-Aldrich)) for 96 h to ensure minimum spontaneous migration. Next, a scratch was drawn with a disposable plastic pipette tip. Cultures were exposed to Hst1, cHst1, Hst2 and mad-Hst1 (all used at a concentration of 5μM), rhIL-6 (125 ng/ml), rhCXCL8 (250 ng/ml) and vehicle (H2O) in serum free medium. Two experimental set-ups were studied: i) cells were exposed only during the first 8 h to histatins and cytokines and then transferred to vehicle supplemented medium for an additional 88 h; or ii) cells were exposed to histatins and cytokines during the entire 96 h study period. Phase contrast micrographs were taken directly after drawing the scratch and after four days (96 h) of exposure. Data were analyzed using an image processing algorithm that has been described in detail in our previous work. The area of the scratch covered by migrating fibroblasts was determined using the following equation: (E0-E96)/(U0-U96), in which: E = exposure to a condition (IL-6, CXCL8 and histatins); U = unexposed (serum-free medium); E0 and U0 = area of the scratch at T = 0 h; E96 and U96 = area of the scratch (not covered with cells) after 96 h. In this way, in each exposed group (IL-6, CXCL8, histatins) the resurfaced area at 96 h is compared to its own 0 h time point and then set relative to the unexposed group (serum-free medium).

[3] = experiment 1, average of four replicates
[4] = experiment 2, average of four replicates
[5] = experiment 3, average of four replicates
[6] = experiment 4, average of four replicates

| Substance | Starting material remaining intact after 96 h in CWE [1] | Degradation in CWE in 96 h [1] | Migration of dermal fibroblasts in scratch assay, 8 h exposure [2, 3] | Migration of dermal fibroblasts in scratch assay, 8 h exposure [2, 4] | Migration of dermal fibroblasts in scratch assay, 8 h exposure [2, 5] | Migration of dermal fibroblasts in scratch assay, 8 h exposure [2, 6] | Migration of dermal fibroblasts in scratch assay, 96 h exposure [2, 3] | Migration of dermal fibroblasts in scratch assay, 96 h exposure [2, 4] | Migration of dermal fibroblasts in scratch assay, 96 h exposure [2, 5] | Migration of dermal fibroblasts in scratch assay, 96 h exposure [2, 6] |
| --- | --- | --- | --- | --- | --- | --- | --- | --- | --- | --- |
| rhIL-6: recombinant human IL-6; source not split at this label | more than 55% | ~ 40% | 1.22 | 1.38 | 1.91 | 2.25 | 1.7 | 1.23 | 1.5 | 2.03 |
| rhCXCL8: recombinant human CXCL8; source not split at this label (migration assay used CXCL8 (6–77) from R&D) | approximately 80% | ~ 40% | 1.29 | 1.35 | 1.63 | 2.13 | 1.13 | 1.58 | 1.46 | 1.64 |

— article PMC4809600, “The Influence of Chronic Wound Extracts on Inflammatory Cytokine and Histatin Stability” (PLoS ONE, 2016)
